Experimental findings from PubChem BioAssay AID1259411 (Chemical Carcinogenesis Research Information System (CCRIS), 2018) are described below.

The source made the active and inactive calls. No rule for the calls is given here.

This data set relates to rodent carcinogenicity bioassays, tumor incidence. As to the kind of experiment: CCRIS carcinogenicity studies. The following applies: Species: MOUSE, Dose: 0, Dose: 0. Put shortly: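 Archive of carcinogenicity, mutagenicity, tumor promotion and tumor inhibition results drawn from journals, NCI reports and other sources, expert-reviewed; covers 1985-2011 and is no longer updated.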

`CN=NCc1ccc(C(=O)NC(C)C)cc1`: for the setting “Strain/Sex: CDF1/MALE, Route: GAVAGE, 300 MG/KG IN 0.01 ML OF 0.5% AQUEOUS SOLUTION OF SODIUM CARBOXYMETHYL CELLULOSE 1/WK FOR 4 WK THEN 0, 400 MG/KG 1/WK, 300 MG/KG IN 0.01 ML OF 0.5% AQUEOUS SOLUTION OF SODIUM CARBOXYMETHYL CELLULOSE 1/WK FOR 4 WK THEN 0, 400 MG/KG 1/WK, Tumor Site: Type of Lesion: PULMONARY SYSTEM: TUMOR, KIDNEY: CYSTADENOMA”, the carcinogen call was “active; positive”.

Regarding `OCC(Cl)(Cl)Cl`, the carcinogen call was “inactive; negative” (Strain/Sex: B6C3F1/FEMALE, Route: INTRAPERITONEAL, 1000 NMOL TOTAL DOSE, 1/3 AND 2/3 OF THE TOTAL DOSE ADMINISTERED AT 8 AND 15 DAYS OF AGE RESPECTIVELY, ANIMALS TERMIN); “inactive; negative” (Strain/Sex: B6C3F1/FEMALE, Route: INTRAPERITONEAL, 2000 NMOL TOTAL DOSE, 3/7 AND 4/7 OF THE TOTAL DOSE ADMINISTERED AT 8 AND 15 DAYS OF AGE RESPECTIVELY, ANIMALS TERMIN); “inactive; negative” (Strain/Sex: B6C3F1/MALE, Route: INTRAPERITONEAL, 1000 NMOL TOTAL DOSE, 1/3 AND 2/3 OF THE TOTAL DOSE ADMINISTERED AT 8 AND 15 DAYS OF AGE RESPECTIVELY, ANIMALS TERMIN); “inactive; negative” (Strain/Sex: B6C3F1/MALE, Route: INTRAPERITONEAL, 2000 NMOL TOTAL DOSE, 3/7 AND 4/7 OF THE TOTAL DOSE ADMINISTERED AT 8 AND 15 DAYS OF AGE RESPECTIVELY, ANIMALS TERMIN).
